For five molecules, TGI results are on record in PubChem BioAssay (NCI).

Some test systems named below: DMS 114 small cell lung; HOP-18 NSCLC; LXFL 529 NSCLC; M19-MEL melanoma; RXF-631 renal; SNB-78 CNS; P388 leukemia; P388/ADR leukemia; SN12K1 renal.
What all share (experiment): NCI tumour cell line growth inhibition, 48 h

Each structure is given as a SMILES string.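 48-hour exposure; five concentrations; linearly interpolated endpoints. TGI is the concentration that stops growth completely.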

On to `COc1ccc(C(=O)Cc2cc(OC)ccc2OC)cc1`, for which the TGI with DMS 114 small cell lung, in the experiment with HOP-18 NSCLC, in the experiment on LXFL 529 NSCLC, in the experiment on M19-MEL melanoma, in the experiment on RXF-631 renal and in the experiment on SNB-78 CNS was greater than 100 µM throughout.

`C=C1C(=O)O[C@H]2C1[C@H](OC(=O)/C(C)=C\COC(C)=O)C[C@]1(CO1)[C@@H]1[C@H](O)[C@H]3O[C@@]3(C)[C@@H]12` (stereo partly specified): the TGI in the experiment on DMS 114 small cell lung was 42.6 µM; with HOP-18 NSCLC it was 41.4 µM; in the experiment with M19-MEL melanoma, 34.4 µM; in the experiment with P388 leukemia, 18.4 µM; in the experiment with P388/ADR leukemia, 30 µM; in the experiment with SN12K1 renal, greater than 55.9 µM. Moreover, the TGI with SNB-78 CNS is greater than 73.5 µM.

On to `Cc1cc(NS(=O)(=O)c2ccc(Nc3c4ccccc4nc4c(C(=O)NCCN(C)C)ccc(Cl)c34)cc2)no1`, for which the TGI came out at 13.9 µM with DMS 114 small cell lung; 19.2 µM with LXFL 529 NSCLC; 16.9 µM in the experiment with M19-MEL melanoma; 20.9 µM in the experiment with RXF-631 renal; 44 µM with SNB-78 CNS.

`O=S1(=O)NNC(=NCc2ccc(F)cc2)c2ccccc21`: the TGI in the experiment with LXFL 529 NSCLC, with M19-MEL melanoma and in the experiment with SNB-78 CNS was greater than 100 µM throughout.

With `COc1cc(N=Nc2cccc(S(=O)(=O)O)c2)c(C)cc1N=Nc1ccc(/C=C/c2ccc(N=[N+]([O-])c3ccc(/C=C/c4ccc(N=Nc5cc(C)c(N=Nc6cccc(S(=O)(=O)O)c6)cc5OC)cc4)c(S(=O)(=O)O)c3)cc2S(=O)(=O)O)cc1`, the TGI in the experiment with DMS 114 small cell lung, with HOP-18 NSCLC, with M19-MEL melanoma, in the experiment with P388 leukemia and in the experiment with SN12K1 renal was greater than 100 µM throughout.
